Experimental data reported in patent publication US20250144186A1, “NOVEL THERAPEUTIC USES OF GARDNERELLA ENDOLYSINS” (priority 2022, published 2025).
In brackets after ≈: the same amount, converted by molar mass. Several values for one entry are separate records, joined by “and”; a condition that tells them apart may be missing. Identical values can stand only once. Like-named read-outs stand apart in the source and are kept apart here.

Assays:
Gardnerella swidsinskii = assay: microbe, parasite or virus in culture; format: cell-based
Description: (§1) The minimum inhibitory concentration (MIC), which is a standard measure of the activity of antimicrobials, was determined according to the Clinical and Laboratory Standards Institute protocol (2018) Methods for Antimicrobial Susceptibility Testing of Anaerobic Bacteria (Carpenter et al., 2018). […] Controls for growth in the absence of antimicrobials were also included. OD600 was recorded by a microplate reader (Tecan, Grodig, Austria) after incubation at 37° C. for 48 h or, for some fast-growing strains, after incubation for 24 h. Absence of growth was defined as OD600≤0.14. […] MIC readout and MBC99.5 spotting were performed after 72 h incubation for H2B10B11.
(§2) However, topical intravaginal antibiotic administration is recommended for BV therapy, which allows to reach concentrations of active ingredients in the mg/mL range. […] Abbreviations: n.d., not determined; SJHB, St. Jan Hospital Bruges.
(§3) MIC90 is defined as the MIC value for 90% of the tested strains. For PM-477 (H2B10), the resistance breakpoint is not defined, therefore a “% resistant” is not defined (n.d.).

Gardnerella vaginalis = assay: microbe, parasite or virus in culture; format: cell-based; conditions: Gardnerella vaginalis
Description: as §1, §2, §3

All Gardnerella = assay: MIC assessment in suspension, panel of 22 strains; format: cell-based, Gardnerella spp.; conditions: for MIC90: N=22 strains
Description: as §1, §2, §3

G. vaginalis biofilm = assay: MBEC on pre-formed biofilms of ancestor isolates; format: cell-based, Gardnerella vaginalis
Description: (§4) Gardnerella spp. (see figures for strain specification) was resuspended in brain heart infusion broth supplemented with 2% (w/v) gelatin, 0.5% yeast extract (w/v), 0.1% starch (w/v) and 0.25% glucose (w/v) (sBHIG). Passaged strains were resuspended in unbuffered NYCB supplemented with 1% glucose (w/v) (sNYCB). The OD600 was set to 0.1 (approx. 10^7-10^8 CFU/mL) and the cell suspension was diluted 1:10 in growth medium as input for biofilm formation. A total of 200 μL of the respective bacterial suspensions was added to 96-well flat bottom plates (tissue-culture treated, Sigma-Aldrich). The biofilms were grown under anaerobic conditions at 37° C. for 40 to 72 hours, depending on the isolate. Subsequently, the supernatant was removed, and the biofilm was treated with antimicrobials dissolved in sBHIG (at pH 5 for treatment with PM-477 (H2B10), and unbuffered for treatment with antibiotics) in 100 μL and incubated anaerobically at 37° C. for another 24 hours. After the treatment, the biofilms were washed twice with 200 μL 1x PBS and dissolved by vigorous pipetting (40x up and down). Serial dilutions of the dissolved cells were spotted on chocolate agar plates. The plates were incubated anaerobically for two to three days and the minimum biofilm eradication concentration (MBEC) of the endolysin or the antibiotics in use were calculated.
Gardnerella dominated biofilms covering the human vaginal epithelial cells are now generally considered as a hallmark of BV. Thus, it was tested how effective antibiotics and PM-477 (H2B10) are in penetrating and killing in vitro pre-formed, 40-72 h old biofilms of various Gardnerella strains.

passaged G. vaginalis = assay: MIC on strains passaged with MDZ or MDZ-OH; format: cell-based, Gardnerella vaginalis; conditions: Gardnerella vaginalis, 48 h
Description: as §1, with “H2B10B11. MBC99.5 is the minimum concentration of an antibacterial agent that results in bacterial death of all cells in suspension up to a defined limit of detection, resulting in killing of at least 99.5% of bacteria.” for “H2B10B11.”
(§5) The final volume of the reaction was 100 µL and the reactions were performed in triplicate in 384-well plates. The OD600 was measured using a microplate reader (Tecan, Grodig, Austria) to generate timepoint 0 h baseline values. The reactions were incubated anaerobically for 24 h, then the OD600 was measured again, and the MIC was measured as the lowest concentration with OD600<0.14. […] This process was repeated for a maximum of 25 rounds. In each round, the input CFU/mL was determined by quantitative plating.
(§6) The susceptibility of Gardnerella strains before and after 8 to 9-times passaging with sub-MIC concentrations of MZD or MDZ-OH is shown in Table 4 below. All MICs determined after 48 h of incubation.

passaged G. swidsinskii = assay: MIC on strains passaged with MDZ-OH; format: cell-based, Gardnerella swidsinskii; conditions: Gardnerella swidsinskii, 48 h
Description: as §1, with “H2B10B11. MBC99.5 is the minimum concentration of an antibacterial agent that results in bacterial death of all cells in suspension up to a defined limit of detection, resulting in killing of at least 99.5% of bacteria.” for “H2B10B11.”
as §5, §6

passaged G. piotii = assay: MIC on strains passaged with MDZ-OH; format: cell-based, Gardnerella piotii; conditions: Gardnerella piotii, 48 h, read-out: MIC passaged
Description: as §1, with “H2B10B11. MBC99.5 is the minimum concentration of an antibacterial agent that results in bacterial death of all cells in suspension up to a defined limit of detection, resulting in killing of at least 99.5% of bacteria.” for “H2B10B11.”
The final volume of the reaction was 100 µL and the reactions were performed in triplicate in 384-well plates. The OD600 was measured using a microplate reader (Tecan, Grodig, Austria) to generate timepoint 0 h baseline values. […] In each round, the input CFU/mL was determined by quantitative plating.
as §6

[1] = tested on: MDZ or MDZ-OH passaged Gardnerella strains grown as biofilm; assay: MBEC on biofilms of the six passaged strains, summary; format: cell-based, Gardnerella spp.
Description: as §4

SMILES: Cc1ncc([N+](=O)[O-])n1CCO [MDZ, metronidazole]
- MBC99.5 (Gardnerella swidsinskii; G. swidsinskii (BV7) UGent BV7.1): >512 µg/mL
- MIC90 (Gardnerella swidsinskii; Gardnerella swidsinskii): > 256 µg/mL
- MIC (Gardnerella swidsinskii; Gardnerella swidsinskii, 48 h, read-out: MIC before passaging, G. swidsinskii (GS 9838-1T), 48 h incubation): 256 µg/mL (≈ 1500 µM)
- MIC (Gardnerella swidsinskii; Gardnerella swidsinskii, 48 h, read-out: MIC before passaging, G. swidsinskii (UGent BV 7.1), 48 h incubation): 256 µg/mL (≈ 1500 µM)
- MIC (Gardnerella swidsinskii; Gardnerella swidsinskii, G. swidsinskii (BV7) UGent BV7.1, suspension, read-out: MIC): 256 µg/mL (≈ 1500 µM)
- MIC (Gardnerella swidsinskii; Gardnerella swidsinskii, G. swidsinskii (BV139) UGent BV139.3, suspension, read-out: MIC): 256 µg/mL (≈ 1500 µM)
- MIC (Gardnerella swidsinskii; Gardnerella swidsinskii, G. swidsinskii (Gs23) GS 10234, suspension): 64 µg/mL (≈ 374 µM)
- MIC (Gardnerella swidsinskii; Gardnerella swidsinskii, G. swidsinskii (Gs24) GS 9838-1(T), suspension, read-out: MIC): 256 µg/mL (≈ 1500 µM)
- MBC (Gardnerella swidsinskii; Gardnerella swidsinskii, read-out: MBC99.5, G. swidsinskii (BV139) UGent BV139.3): 256 µg/mL (≈ 1500 µM)
- MBC (Gardnerella swidsinskii; Gardnerella swidsinskii, G. swidsinskii (Gs24) GS 9838-1(T), read-out: MBC99.5): > 512 µg/mL
- MIC90 (Gardnerella vaginalis): 64 µg/mL (≈ 374 µM)
- MIC (Gardnerella vaginalis; 48 h, read-out: MIC before passaging, G. vaginalis (ATCC 14018T), 48 h incubation): 8 µg/mL (≈ 46.7 µM)
- MIC (Gardnerella vaginalis; 48 h, read-out: MIC before passaging, G. vaginalis (UGent 09.07), 48 h incubation): 64 µg/mL (≈ 374 µM)
- MIC (Gardnerella vaginalis; 48 h, read-out: MIC before passaging, G. vaginalis (UGent BV50), 48 h incubation): 32 µg/mL (≈ 187 µM)
- MBC (Gardnerella vaginalis; ATCC14018, 24 h, read-out: MBC99.5, G. vaginalis (Gv9) ATCC 14018(T), reduces CFU by 99.5% within 24 h): 16 µg/mL (≈ 93.5 µM)
- MIC (Gardnerella vaginalis; ATCC14018, G. vaginalis (Gv9) ATCC 14018(T), suspension): 8 µg/mL (≈ 46.7 µM)
- MIC (Gardnerella vaginalis; G. vaginalis (BV50) UGent BV50.1, suspension): 32 µg/mL (≈ 187 µM)
- MIC (Gardnerella vaginalis; G. vaginalis (FB049) UGent FB049-01, suspension): 16 µg/mL (≈ 93.5 µM)
- MIC (Gardnerella vaginalis; G. vaginalis (FB061) UGent FB061-03, suspension, read-out: MIC): 8 µg/mL (≈ 46.7 µM)
- MBC (Gardnerella vaginalis; G. vaginalis (FB061) UGent FB061-03, read-out: MBC99.5): 32 µg/mL (≈ 187 µM)
- MIC (Gardnerella vaginalis; G. vaginalis (Gv1) UGent 09.07, suspension, read-out: MIC): 64 µg/mL (≈ 374 µM)
- MBC (Gardnerella vaginalis; G. vaginalis (Gv1) UGent 09.07, read-out: MBC99.5): 512 µg/mL (≈ 2990 µM)
- MIC (Gardnerella vaginalis; G. vaginalis (Gv5) UGent 09.01, suspension, read-out: MIC): 8 µg/mL (≈ 46.7 µM)
- MBC (Gardnerella vaginalis; G. vaginalis (Gv5) UGent 09.01, read-out: MBC99.5): 512 µg/mL (≈ 2990 µM)
- MIC (Gardnerella vaginalis; G. vaginalis (Gv8) UGent 25.49, suspension, read-out: MIC): 8 µg/mL (≈ 46.7 µM)
- MBC (Gardnerella vaginalis; G. vaginalis (Gv8) UGent 25.49, read-out: MBC99.5): 32 µg/mL (≈ 187 µM)
- MIC Range (Gardnerella vaginalis; N=8 strains): 8 to 64 µg/mL
- MBC (Gardnerella vaginalis; read-out: MBC99.5, G. vaginalis (BV111) UGent BV111.5): 64 µg/mL (≈ 374 µM)
- MBC (Gardnerella vaginalis; read-out: MBC99.5, G. vaginalis (FB049) UGent FB049-01): 64 µg/mL (≈ 374 µM)
- N resistant (%) (All Gardnerella; N=22, resistance ≥32 μg/mL MDZ): 59% and 60%
- N resistant (All Gardnerella; N=22, resistance ≥32 μg/mL MDZ, ≥8 μg/mL CLI): 13
- MIC90 (All Gardnerella): >256 µg/mL
- MIC90 (All Gardnerella; read-out: MIC90): > 256 µg/mL
- Eradication of biofilm-grown cells (FIG. 1) (G. vaginalis biofilm; G. vaginalis (ATCC14018), biofilm grown 40 h, treated 24 h): can be eradicated
- MBEC (G. vaginalis biofilm; ancestor G. vaginalis UGent FB049, pre-formed biofilm): 2 to 8 µg/mL
- MIC (passaged G. vaginalis; read-out: MIC passaged, G. vaginalis (ATCC 14018T) passaged with sub-MIC MDZ, 48 h incubation): > 512 µg/mL
- MIC (passaged G. vaginalis; read-out: MIC passaged, G. vaginalis (UGent 09.07) passaged 8 times with MDZ-OH, 48 h incubation): > 2050 µg/mL
- MIC (passaged G. vaginalis; read-out: MIC passaged, G. vaginalis (UGent BV50) passaged with MDZ-OH, 48 h incubation): > 2050 µg/mL
- MIC (passaged G. swidsinskii; read-out: MIC passaged, G. swidsinskii (GS 9838-1T) passaged with MDZ-OH, 48 h incubation): > 512 µg/mL
- MIC (passaged G. swidsinskii; read-out: MIC passaged, G. swidsinskii (UGent BV 7.1) passaged with MDZ-OH, 48 h incubation): > 2050 µg/mL
- MIC (passaged G. piotii): > 2050 µg/mL
- Susceptibility of MDZ-passaged strains grown as biofilm (FIG. 4) ([1]; 72 h pre-formed biofilms treated for 24 h): resistant
- MBEC, range over passaged strains ([1]; six strains passaged on MDZ or MDZ-OH, pre-formed biofilms, 24 h treatment): > 2048 µg/mL
